The text below walks through data of patent US6365618B1, “Administration of carvedilol to mitigate tardive movement disorders, psychosis, mania, and depression” (priority 2000, dated 2002).

In one data set the test system is tardive dystonia. Briefly: Case report: oral carvedilol, tardive dystonia and swallowing difficulty. The class given is in vivo, human. To be noted: Case #4; carvedilol 6.25 mg twice daily; 28 hours, after three doses. From the text:
This person was in the hospital because of difficulty swallowing. This began about a year prior to hospitalization while taking haloperidol and lithium medications. Increasingly they would cough while eating or drinking. […] The swallowing difficulty worsened despite replacement of lithium and haloperidol with divalproex and olanzapine. […] This aspiration put them at risk of aspiration pneumonia, which is disabling and can be life-threatening. For them to receive water and food a tube was surgically inserted between their stomach and the outside of their abdomen. […] When they tried to drink water from a cup these movements obviously interfered with swallowing. […] On the Abnormal Involuntary Movement SCALE (AIMS) they scored 13. They then received carvedilol 6.25 mg twice daily. Twenty-eight hours later, after three doses, their swallowing was rated by the Speech Therapy Department as 70% improved.

The test system of data set [1] is tardive dyskinesia. Put plainly: Case reports: oral carvedilol in hospitalized patients with tardive dyskinesia. The class given is in vivo, human. As for the experimental part:
(§1) Clozapine is recognized as a drug that, because of dangerous side-effects, is reserved as the last resort after the failure of long courses and high doses of several other antipsychotic medications. […] Carvedilol 6.25 mg once daily was then started. On 11/15 the carvedilol dose was increased to 6.25 mg twice daily. […] On the ninth hospital day carvedilol was discontinued.
On the first hospital day carvedilol 3.125 mg twice daily was started. […] Carvedilol was then restarted. […] Carvedilol was continued for a month.
This person was admitted to the hospital for the treatment of an anxiety disorder whose symptoms included insomnia, nightmares, unhappiness, suicidality, continual worry, and panic attacks. They had previously taken the antidepressants nortriptyline and fluoxetine, and was taking nefazodone 375 mg/day for one year. They were also taking the antihypertensive medication benazepril 40 mg/day, and the sleeping medication zaleplon 10 mg/day. […] They then received carvedilol 3.125 mg twice daily.
This person was in the hospital because of difficulty swallowing. […] This aspiration put them at risk of aspiration pneumonia, which is disabling and can be life-threatening. For them to receive water and food a tube was surgically inserted between their stomach and the outside of their abdomen. […] They then received carvedilol 6.25 mg twice daily.

The nature of data set [2]: Side effects of carvedilol in patients. The format is in vivo, human. As for the experimental part: as §1
A further data set deals with tardive akathisia. Briefly: Case reports: oral carvedilol, agitated movements of tardive akathisia. The format is in vivo, human. From the text: These movements were consistent with tardive dyskinesia. […] They mentioned having been told by several psychiatrists that […] has tardive dyskinesia, and that […]'d previously taken numerous different antipsychotic drugs, including risperidone, olanzapine, and clozapine. Clozapine is recognized as a drug that, because of dangerous side-effects, is reserved as the last resort after the failure of long courses and high doses of several other antipsychotic medications. On the third hospital day, a Friday (Nov. 13, 1998), the tongue protrusion movements continued unchanged. Carvedilol 6.25 mg once daily was then started. On 11/15 the carvedilol dose was increased to 6.25 mg twice daily. When next evaluated, at 9am on Monday 11/16, the tongue protrusions were absent. The absence of dyskinesia persisted despite the patient's repeated expressions of anxiety and anxious thoughts. […] Agitation then decreased, a sign of improvement in tardive akathisia. On the ninth hospital day carvedilol was discontinued. The patient was discharged on the 15th hospital day, without recurrence of any tongue protrusion, and without observable agitation. […] They spontaneously complained that children in their neighborhood mocked them and called them a witch because of the tongue movements. They stated that […] avoids leaving the house because of harassment by the children. […]

The conditions of data set [3]: cited from earlier work.
The conditions of data set [4]: cited from earlier work. This is another data set of the same source.
Data set [5] has as its system acute dystonias induced by antipsychotic medication. To be noted: monkeys; cited from earlier work.
In data set [6] the test system is orofacial movements caused by haloperidol. To be noted: one-day and two-week trials; cited from earlier work.
Data set [7] relates to tardive dyskinesia. To be noted: most studies; cited from earlier work.
Where [8] appears, read: Case #3, carvedilol 3.125 mg twice daily, 24 hours, after two doses.

For `COc1ccccc1OCCNCC(O)COc1cccc2[nH]c3ccccc3c12` (racemic) [carvedilol, ±-1-(carbazol-4-yloxy)-3-[[2-(o-methyoxyphenoxy)ethyl]amino]-2-propanol], in the data set with tardive dystonia, the facial dystonia entry is recorded as “disappeared”, the neck dystonia result was “decreased from moderate to mild” and the “swallowing improvement rated by Speech Therapy Department” value was 70%. Besides, the tongue protrusions entry with tardive dyskinesia [1] (Case #1, carvedilol 6.25 mg once daily, then twice daily, evaluated after 3 days) is “absent”. Moreover, the tongue protrusions entry with tardive dyskinesia [1] (Case #2, carvedilol 3.125 mg twice daily, next day) is listed as “no extensions of the tongue out of the mouth occurred”. The “tongue protrusions after carvedilol restarted” value with tardive dyskinesia [1] (Case #2, rehospitalized, carvedilol restarted, beginning on the next day) is reported as “no longer seen”. In the data set on tardive dyskinesia [1] (setting [8]), the chewing movements result is “gone”; the “lip and tongue movements” value was “in normal range”. Moreover, the “AIMS score (Abnormal Involuntary Movement Scale)” value with tardive dyskinesia [1] (Case #3, carvedilol 3.125 mg twice daily, 24 hours, after two doses, score before treatment 11) was 6. The tongue dyskinesia entry in the data set on tardive dyskinesia [1] (Case #4, carvedilol 6.25 mg twice daily, 28 hours, after three doses) is on record as “decreased from mild to marginal”. Further, the “AIMS score (Abnormal Involuntary Movement Scale)” value with tardive dyskinesia [1] (Case #4, carvedilol 6.25 mg twice daily, 28 hours, after three doses, score before treatment 13) worked out at 8. In addition, the faintness or bradycardia entry in [2] (Case #1, carvedilol 6.25 mg twice daily) is given as “lack of any faintness or bradycardia”. The side effects entry in data set [2] (usually effective doses to treat TD) was “non-existent or mild”. Moreover, the “agitation (sign of tardive akathisia)” value in the data set with tardive akathisia (Case #1, carvedilol 6.25 mg in the morning and 12.5 mg at bedtime) was “decreased”. Moreover, in the data set with tardive akathisia (Case #2, at discharge after one week of carvedilol), the “agitated movements consistent with tardive akathisia” value is recorded as “no agitated movements”. Besides, the average elimination half-life entry in [3] (from the human body) is listed as “about 8 hours”. In data set [3] (taken by mouth), the absorption result was “rapid and complete”. Further, in [4], the “in vitro antioxidant activity” value was “exceptionally potent”.
Take `C#CCN(C)Cc1ccccc1` [pargyline]: the “acute dystonias induced by antipsychotic medication” value in data set [5] is “reduced”.
Consider `CC(C)NCC(O)COc1cccc2ccccc12` (stereo not drawn) [propranolol], for which the “orofacial movements caused by haloperidol” value in data set [6] is “did not diminish”.
With vitamin E, in the data set with tardive dyskinesia [7], the “improvement of TD” value is on record as “no significant improvement”.
